Experiments:
[1] = test system: tissue strips obtained from Landrace pig bladders; assay: Functional potassium channel opening activity in isolated bladder strips (field-stimulated twitch); conditions: for EC50 / Emax: Sus scrofa; for EC50: amount causing 50% of the agent's maximal response, read-out: ED50 (the source's name); for Emax: maximal efficacy relative to P1075, field stimulation 0.05 Hz
Experimental: Compounds were evaluated for functional potassium channel opening activity using tissue strips obtained from Landrace pig bladders.
Landrace pig bladders were obtained from female Landrace pigs of 930 kg. Landrace pigs were euthanized with an intraperitoneal injection of pentobarbital solution, Somlethal®, J. A. Webster Inc., Sterling Mass. The entire bladder was removed and immediately placed into Krebs Ringer bicarbonate solution (composition, mM: NaCl, 120; NaHCO3, 20; dextrose, 11; KCl, 4.7; CaCl2, 2.5; MgSO4, 1.5; KH2PO4, 1.2; K2EDTA, 0.01, equilibrated with 5% CO2/95% O2pH 7.4 at 37° C.). Propranolol (0.004 mM) was included in all of the assays to block β-adrenoceptors. The trigonal and dome portions were discarded. Strips 3-5 mm wide and 20 mm long were prepared from the remaining tissue cut in a circular fashion. The mucosal layer was removed. One end was fixed to a stationary glass rod and the other to a Grass FT03 transducer at a basal preload of 1.0 gram. Two parallel platinum electrodes were included in the stationary glass rod to provide field stimulation of 0.05 Hz, 0.5 milli-seconds at 20 volts. This low frequency stimulation produced a stable twitch response of 100-500 centigrams. Tissues were allowed to equilibrate for at least 60 minutes and primed with 80 mM KCl. A control concentration response curve (cumulative) was generated for each tissue using the potassium channel opener P1075 as the control agonist. […] After a 60 minute rinsing period, a concentration response curve (cumulative) was generated for the test agonist in the same fashion as that used for the control agonist P1075. The maximal efficacy of each compound (expressed as % relative to P1075) is reported. The amount of agent necessary to cause 50% of the agent's maximal response (ED50) was calculated using “ALLFIT” (DeLean et al., Am. J. Physiol., 235, E97 (1980)), hereby incorporated by reference. Agonist potencies were also expressed as an index relative to P1075. The index was calculated by dividing the ED50 for P1075 by the ED50 for the test agonist in a given tissue. Each tissue was used for only one test agonist, and the indices obtained from each tissue were averaged to provide an average index of potency.

[2] = test system: primary cultured guinea-pig urinary bladder (GPB) cells; assay: Membrane hyperpolarization (MHP) assay, DiBAC(4)3 / FLIPR; assay type: cell-based; conditions: Cavia porcellus; membrane hyperpolarization in guinea-pig bladder cells
Experimental: Compounds were evaluated for potassium channel opening activity using primary cultured guinea-pig urinary bladder (GPB) cells.
For the preparation of urinary bladder smooth muscle cells, urinary bladders were removed from male guinea-pigs (Hartley, Charles River, Wilmington, Mass.) weighing 300-400 g and placed in ice-cold Ca^2+-free Krebs solution (composition, mM: KCl, 2.7; KH2PO4, 1.5; NaCl, 75; Na2HPO4, 9.6; Na2HPO4.7H2O, 8; MgSO4, 2; glucose, 5; HEPES, 10; pH 7.4). Cells were isolated by enzymatic dissociation as previously described with minor modifications (Klockner and Isenberg, Pflugers Arch. (1985), 405, 329-339), hereby incorporated by reference. The bladder was cut into small sections and incubated in 5 mL of the Kreb's solution containing 1 mg/mL collagenase (Sigma, St. Louis, Mont.) and 0.2 mg/mL pronase (Calbiochem, La Jolla, Calif.) with continuous stirring in a cell incubator for 30 minutes. The mixture was then centrifuged at 1300× g for 5 minutes, and the pellet resuspended in Dulbecco's PBS (GIBCO, Gaithersburg, Md.) and recentrifuged to remove residual enzyme. The cell pellet was resuspended in 5 mL growth media (composition: Dulbecco's modified Eagle's medium supplemented with 10% fetal bovine serum, 100 units/mL penicillin, 100 units/mL streptomycin and […] amphotericin B) and further dissociated by pipetting the suspension through a flame-polished Pasteur pipette and passing it through a polypropylene mesh membrane (Spectrum, Houston, Tex.). The cell density was adjusted to 100,000 cells/mL by resuspension in growth media. Cells were plated in clear-bottomed black 96-well plates (Packard) for membrane potential studies at a density of 20,000 cells/well and maintained in a cell incubator with 90% air:10% CO2 until confluent. Cells were confirmed to be of smooth muscle type by cytoskeletal staining using a monoclonal mouse anti human-α-smooth muscle actin (Biomeda, Foster City, Calif.).
Functional activity at potassium channels was measured by evaluating changes in membrane potential using the bis-oxonol dye DiBAC(4)3 (Molecular Probes) in a 96-well cell-based kinetic assay system, Fluorescent Imaging Plate Reader (FLIPR) (K. S. Schroeder et al., J. Biomed. Screen., v. 1 pp. 7581 (1996)), hereby incorporated by reference. DiBAC(4)3 is an anionic potentiometric probe which partitions between cells and extracellular solution in a membrane potential-dependent manner. With increasing membrane potential (for example, K^+ depolarization), the probe further partitions into the cell; this is measured as an increase in fluorescence due to dye interaction with intracellular lipids and proteins. Conversely, decreasing membrane potential (hyperpolarization by potassium channel openers) evokes a decrease in fluorescence.
Confluent guinea-pig urinary bladder cells cultured in black clear-bottomed 96-well plates were rinsed twice with […] assay buffer (composition, mM: HEPES, 20; NaCl, 120; KCl, 2; CaCl2, 2; MgCl2, 1; glucose, 5; pH 7.4 at 25° C.) containing 5 μM DiBAC(4)3 and incubated with […] of the buffer in a cell incubator for 30 minutes at 37° C. to ensure dye distribution across the membrane. After recording the baseline fluorescence for 5 minutes, the reference or test compounds, prepared at 10 times the concentration in the assay buffer, were added directly to the wells. Changes in fluorescence were monitored for an additional 25 minutes. Hyperpolarization responses were corrected for any background noise and were normalized to the response observed with 10 μM of the reference compound P1075 (assigned as 100%), a potent opener of smooth muscle KATP channels (Quast et al., Mol. Pharmacol., v. 43 pp. 474-481 (1993)).
Routinely, five concentrations of P1075 or test compounds (log or half-log dilutions) were evaluated and the maximal steady-state hyperpolarization values (expressed as % relative to P1075) plotted as a function of concentration. […]

## CC(C)(C)C(NC(=O)c1cccc(Cl)c1)Nc1c(Nc2cccnc2)c(=O)c1=O (centres unmarked) [Example 5, 3-chloro-N-(1-{[3,4-dioxo-2-(3-pyridinylamino)-1-cyclobuten-1-yl]amino}-2,2-dimethylpropyl)benzamide]
[1]; Landrace pig bladder strips
  EC50: 380 nM
  Emax: 98%

## CC(C)(C)C(NC(=O)c1cc(Cl)cc(Cl)c1)Nc1c(Nc2cccnc2)c(=O)c1=O (centres unmarked) [Example 12, 3,5-dichloro-N-(1-{[3,4-dioxo-2-(3-pyridinylamino)-1-cyclobuten-1-yl]amino}-2,2-dimethylpropyl)benzamide]
[1]; Landrace pig bladder strips
  EC50: 2600 nM
  Emax: 78%

## Cc1ccc(C(=O)NC(Nc2c(Nc3cccnc3)c(=O)c2=O)C(C)(C)C)cc1 (centres unmarked) [Example 1, N-(1-{[3,4-dioxo-2-(3-pyridinylamino)-1-cyclobuten-1-yl]amino}-2,2-dimethylpropyl)-4-methylbenzamide]
[2]
  EC50: 150 nM
[1]; Landrace pig bladder strips
  EC50: 19000 nM
  Emax: 54%

## CC(C)(C)C(NC(=O)c1cccc(F)c1)Nc1c(Nc2cccnc2)c(=O)c1=O (centres unmarked) [Example 7, N-(1-{[3,4-dioxo-2-(3-pyridinylamino)-1-cyclobuten-1-yl]amino}-2,2-dimethylpropyl)-3-fluorobenzamide]
[1]; Landrace pig bladder strips
  EC50: 8400 nM
  Emax: 89%

## COc1cc(OC)cc(C(=O)NC(Nc2c(Nc3cccnc3)c(=O)c2=O)C(C)(C)C)c1 (centres unmarked) [Example 13, N-(1-{[3,4-dioxo-2-(3-pyridinylamino)-1-cyclobuten-1-yl]amino}-2,2-dimethylpropyl)-3,5-dimethoxybenzamide]
[1]; Landrace pig bladder strips
  EC50: 370 nM
  Emax: 75%

## CC(C)(Cc1ccccc1)C(NC(=O)c1ccc(Cl)cc1)Nc1c(Nc2cccnc2Cl)c(=O)c1=O (centres unmarked) [Example 31, 4-chloro-N-[1-({2-[(2-chloro-3-pyridinyl)amino]-3,4-dioxo-1-cyclobuten-1-yl}amino)-2,2-dimethyl-3-phenylpropyl]benzamide]
[1]; ED50 for P1075 divided by ED50 for the test agonist in a given tissue, averaged
  Index: 0.039
[1]; Landrace pig bladder strips
  EC50: 2900 nM
  Emax: 76%

## C=CCOCC(CC)(COCC=C)C(NC(=O)c1ccc(Cl)cc1)Nc1c(Nc2cccnc2)c(=O)c1=O (centres unmarked) [Example 20, N-(2,2-bis[(allyloxy)methyl]-1-{[3,4-dioxo-2-(3-pyridinylamino)-1-cyclobuten-1-yl]amino}butyl)-4-chlorobenzamide]
[2]
  EC50: 580 nM

## CC(C)(C)C(NC(=O)c1cc(F)cc(F)c1)Nc1c(Nc2cccnc2)c(=O)c1=O (centres unmarked) [Example 16, N-(-1-{[3,4-dioxo-2-(3-pyridinylamino) 1-cyclobuten-1-yl]amino}-2,2-dimethylpropyl)-3,5-difluorobenzamide]
[1]; Landrace pig bladder strips
  EC50: 3800 nM
  Emax: 94%

## CCC(CC)C(NC(=O)c1ccc(Cl)cc1)Nc1c(Nc2cccnc2)c(=O)c1=O (centres unmarked) [Example 21, 4-chloro-N-(1-{[3,4-dioxo-2-(3-pyridinylamino)-1-cyclobuten-1-yl]amino}-2-ethylbutyl)benzamide]
[1]; Landrace pig bladder strips
  EC50: 4000 nM
  Emax: 68%

## Cc1cccc(C(=O)NC(Nc2c(Nc3cccnc3)c(=O)c2=O)C(C)(C)C)c1 (centres unmarked) [Example 6, N-(1-{[3,4-dioxo-2-(3-pyridinylamino)-1-cyclobuten-1-yl]amino}-2,2-dimethylpropyl)-3-methylbenzamide]
[1]; Landrace pig bladder strips
  EC50: 1000 nM
  Emax: 100%

## Cc1cccc(C(=O)NC(Nc2c(Nc3cccnc3Cl)c(=O)c2=O)C(C)(C)C)c1 (centres unmarked) [Example 32, N-[1-({2-[(2-chloro-3-pyridinyl)amino]-3,4-dioxo-1-cyclobuten-1-yl}amino)-2,2-dimethylpropyl]-3-methylbenzamide]
[1]; Landrace pig bladder strips
  EC50: 1300 nM
  Emax: 99%

## O=C(NC(Nc1c(Nc2cccnc2)c(=O)c1=O)C(F)(F)C(F)(F)F)c1cccc(Cl)c1 (centres unmarked) [Example 26, 3-chloro-N-(1-{[3,4-dioxo-2-(3-pyridinylamino)-1-cyclobuten-1-yl]amino}-2,2,3,3,3-pentafluoropropyl)benzamide]
[1]; Landrace pig bladder strips
  EC50: 420 nM
  Emax: 64%

## CC(C)(C)C(NC(=O)c1ccc(Cl)cc1)Nc1c(Nc2cccnc2Cl)c(=O)c1=O (centres unmarked) [Example 29, 4-chloro-N-[1-({2-[(2-chloro-3-pyridinyl)amino]-3,4-dioxo-1-cyclobuten-1-yl}amino)-2,2-dimethylpropyl]benzamide]
[1]; Landrace pig bladder strips
  EC50: 3000 nM
  Emax: 81%

## CCC(C)(C)N=C(NC#N)Nc1cccnc1 [Example P1075, reference compound]
[1]; Landrace pig bladder strips, P1075 over 10^−9 to 10^−5 M
  effect on stimulated twitch / stimulated contractions of the bladder: completely eliminated the stimulated twitch

## CC(C)(C)C(NC(=O)CCc1ccccc1)Nc1c(Nc2cccnc2)c(=O)c1=O (centres unmarked) [Example 36, N-(1-{[3,4-dioxo-2-(3-pyridinylamino)-1-cyclobuten-1-yl]amino}-2,2-dimethylpropyl)-3-phenylpropanamide]
[1]; Landrace pig bladder strips
  EC50: 970 nM
  Emax: 99%

## CC(C)(C)C(NC(=O)c1ccc(Cl)cc1)Nc1c(Nc2cccnc2)c(=O)c1=O (centres unmarked) [Example 2, 4-chloro-N-(1-{[3,4-dioxo-2-(3-pyridinylamino)-1-cyclobuten-1-yl]amino}-2,2-dimethylpropyl)benzamide]
[2]
  EC50: 160 nM
[1]; Landrace pig bladder strips
  EC50: 6900 nM
  Emax: 79%

## CCC(CC)(CCC#N)C(NC(=O)c1ccc(Cl)cc1)Nc1c(Nc2cccnc2)c(=O)c1=O (centres unmarked) [Example 19, 4-chloro-N-(4-cyano-1-{[3,4-dioxo-2-(3-pyridinylamino)-1-cyclobuten-1-yl]amino}-2,2-diethylbutyl)benzamide]
[2]
  EC50: > 10000 nM

## CC(C)(C)C(NC(=O)c1ccc(I)cc1)Nc1c(Nc2cccnc2)c(=O)c1=O (centres unmarked) [Example 3, N-(1-{[3,4-dioxo-2-(3-pyridinylamino)-1-cyclobuten-1-yl]amino}-2,2-dimethylpropyl)-4-iodobenzamide]
[1]; Landrace pig bladder strips
  EC50: 2200 nM
  Emax: 73%

## CC(C)(C)C(NC(=O)c1cccc(I)c1)Nc1c(Nc2cccnc2)c(=O)c1=O (centres unmarked) [Example 8, N-(1-{[3,4-dioxo-2-(3-pyridinylamino)-1-cyclobuten-1-yl]amino}-2,2-dimethylpropyl)-3-iodobenzamide]
[1]; Landrace pig bladder strips
  EC50: 2800 nM
  Emax: 84%

— patent US20020147230A1, “Aminal Diones as potassium channel openers” (priority 2001, published 2002)
